The target of the assay is Neuronal acetylcholine receptor subunit alpha-4 (Rattus norvegicus, UniProt P09483).

pKi: −log10 of the molar value. A value given as a limit tells only on which side of the number the result lay.

The values below come from BindingDB's records for doi:10.1016/j.bmcl.2007.10.101 (Solvay Pharmaceuticals, 2008).

Usually pKi stands for the negative decadic logarithm of the Ki, by convention in mol/L. Higher therefore signals a small Ki.

Sequence of Neuronal acetylcholine receptor subunit alpha-4 (P09483 whole entry): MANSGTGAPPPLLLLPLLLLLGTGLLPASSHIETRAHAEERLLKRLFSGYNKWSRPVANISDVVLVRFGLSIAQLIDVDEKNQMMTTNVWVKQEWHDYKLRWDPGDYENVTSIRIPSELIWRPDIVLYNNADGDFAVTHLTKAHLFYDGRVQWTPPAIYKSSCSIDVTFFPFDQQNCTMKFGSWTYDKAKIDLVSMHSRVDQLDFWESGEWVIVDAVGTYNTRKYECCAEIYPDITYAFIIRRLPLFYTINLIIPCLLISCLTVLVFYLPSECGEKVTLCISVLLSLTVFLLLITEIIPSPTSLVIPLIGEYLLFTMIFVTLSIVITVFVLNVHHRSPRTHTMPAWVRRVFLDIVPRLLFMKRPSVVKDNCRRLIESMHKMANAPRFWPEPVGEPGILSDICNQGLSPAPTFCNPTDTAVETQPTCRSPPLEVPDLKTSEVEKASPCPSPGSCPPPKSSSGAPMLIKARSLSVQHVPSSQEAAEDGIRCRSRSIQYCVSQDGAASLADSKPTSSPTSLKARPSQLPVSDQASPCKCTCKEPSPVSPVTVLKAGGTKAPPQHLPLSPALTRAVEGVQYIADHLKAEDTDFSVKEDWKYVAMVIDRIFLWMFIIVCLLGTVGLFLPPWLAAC

In turn, `c1cnc2[nH]c(C3CCCNC3)cc2c1` (stereo unspecified) [CAS_24759729] gave a pKi of under 5.00.
